# Test results taken from US8580731B2, “Insulin-gold nanocluster, pharmaceutical composition for reducing blood glucose comprising the same, and method for detecting adipose cells in tissue by using the same” (priority 2012, dated 2013).
# Tested on: insulin-degradation enzyme (IDE)
# Assay: Insulin-Au NC fluorescence in mouse brain homogenate (IDE degradation and inhibition)
# Type: biochemical
# Details: inhibitor 0.01 to 1 mM pre-incubated 30 min with brain homogenate
# Protocol: In addition, ten-week-old C57BL/6J male mice were well-anesthetized by i.p. injection of pentobarbital (75 mg/kg), and then the brain was removed and homogenated in PBS. The homogenate was then centrifuged at 6,000×g for 20 min and the supernatant was collected for the preparation of further experiments.
# 0.01, 0.1, and 1 mM doses of thiorphan or racecadotril, which was known as inhibiting agents for insulin-degradation enzyme (IDE), were co-incubated with the brain homogenates for 30 min, and then 10 μg/ml insulin-Au NCs was added and incubated with brain homogenates for 1 hour at 37° C. The detection of the insulin-Au NCs was determined by 450 nm and 650 nm of the emission excitation wavelength, respectively.
row,SMILES,recovery of 670 nm emission (IDE inhibition)
1,CC(=O)SCC(Cc1ccccc1)C(=O)NCC(=O)OCc1ccccc1 (centres unmarked) [racecadotril],signal recovery was increased
2,O=C(O)CNC(=O)C(CS)Cc1ccccc1 (centres unmarked) [thiorphan],signal recovery was increased
